Test [1] deals with WRN RNA transcript and protein. Put plainly: Reactivation of WRN expression in WRN-hypermethylated cancer cell lines (RT-PCR, western blot, immunofluorescence). As to conditions: HCT-116, COLO-205, MDA-MB-231 and U937 cell lines; 1 μM for 3 days. It is filed as cell-based, human. How it is done: (§1) The eleven human cancer cell lines examined in this study were obtained from the American Type Culture Collection (ATCC) (Rockland, Md., USA) and the German Collection of Microorganisms and Cell Cultures (DSMZ, Braunschweig, Germany). The cell lines represented three different types of malignancies, colon (HCT-116, COLO-205), breast (MCF-7, MDA-MB-468, MDAMB-231) and leukaemia (HL-60, KG1a, U937, REH, Jurkat, K562). Cell lines were maintained in appropriate media and treated with 1 μM 5-aza-2′-deoxycytidine (Sigma) for 3 days to achieve demethylation, as previously described (Herman et al., 1998; Ropero et al., 2004). WS−/− cells (AG11395) were obtained from the Coriel Cell Repositories (Camden, N.J., USA). The collection of primary tumor samples analyzed has been described elsewhere (Esteller et al., 2001; Ropero et al., 2004).
RNA was isolated using TRIzol (Life Technologies, Gaithersburg, Md., USA). 2 μg of RNA was reverse-transcribed using SuperScript II reverse transcriptase (Gibco/BRL) and amplified using specific primers for WRN (forward: 5′-GCATGTGTTCGGAAGAGTGTTT-3-(SEQ ID. NO: 6), reverse: 5′-TGACATGGAAGAAACGTGGAA-3 (SEQ ID. NO: 7)) and for GAPDH. […] Cell lysates for protein analysis were prepared and analyzed by western blotting using the WRN antibody ab200 (Rabbit Polyclonal, Abcam). […]

In test [2] the test system is WRN-associated exonuclease activity in U937 cells. Description: Exonuclease activity assay in WRN-immunoprecipitated cell extracts. It is filed as cell-based, human. As to conditions: 1 μM for 3 days. How it is done: as §1
The exonuclease enzymatic activity was measured as previously described (Brosh et al., 2001). […] The digestion products of these reactions were separated on 15% denaturing polyacrylamide gels, visualized using a PhosphorImager (Molecular Dynamics), and quantitated using ImageQuant software (Molecular Dynamics).

The test system of test [3] is lymphoblastoid cells from a WS patient. Put plainly: Cytogenetic chromosomal breakage analysis. Type of test: cell-based, human. As to conditions: metaphases. How it is done: as §1
(§2) The percentage of apoptotic cells was determined by flow cytometry using Vybrant® Apoptosis Assay Kit #4-YO-PRO®-1/propidium iodide (Molecular Probes/Invitrogen). Briefly, cells were washed twice with ice cold PBS and resuspended in PBS containing YO-PRO®-1/propidium iodide. Apoptotic cells were identified by flow cytometry after 20 min of incubation. Cytogenetic assay was performed as previously described (Herranz et al., 2006) analyzing one-hundred metaphases for each experimental condition.

Test [4] concerns MCF-7 cells (unmethylated WRN promoter). Put plainly: Apoptosis by flow cytometry. It is filed as cell-based, human. Particulars: MCF-7, WRN unmethylated. How it is done: as §2
In test [5] the test system is MDA-MB-231 cells (WRN promoter hypermethylation). Put plainly: Apoptosis by flow cytometry. Type of test: cell-based, human. As to conditions: MDA-MB-231, WRN hypermethylated; increasing concentrations. How it is done: as §2
Test [6] relates to U937 cells (WRN promoter hypermethylation). Description: Apoptosis by flow cytometry. Particulars: U937, WRN hypermethylated; increasing concentrations. It is filed as cell-based, human. How it is done: as §2
Test [7] has as its system WRN-transfected U937 cells. Put plainly: Apoptosis by flow cytometry. Type of test: cell-based, human. As to conditions: U937 transfected with WRN. How it is done: as §2
(§3) The WRN coding sequence corresponding to the cDNA from a BLCL lymphoblastoid-EBV immortalized cell line was amplified by PCR and directly cloned into the pGEM-T Easy Vector (Promega, Winsconsin USA). The WRN insert was subcloned into the pEGFP-N1 expression vector (Invitrogen) and confirmed by sequencing. For transfection experiments we used the pEGFP-N1 vector containing the WRN gene, or the pEGFP-N1 empty vector. Transfection of MDA-MB-231 and U937 cells was performed by electroporating […] in 0.8 ml PBS with 40 μg of the vector at 250 V and 975 μF. After electroporation, cells were washed with PBS and seeded with 10^6 cells/ml in fresh medium containing 20% FBS. Transfected cells were selected by the addition of G418 (600 μg/ml).

In test [8] the test system is WRN-transfected MDA-MB-231 cells. Put plainly: Apoptosis by flow cytometry. Type of test: cell-based, human. Particulars: MDA-MB-231 transfected with WRN. How it is done:
as §2, §3

The test system of test [9] is MDA-MB-231 cells (WRN aberrant methylation). Description: Cytogenetic chromosomal breakage analysis. It is filed as cell-based, human. How it is done:
as §2

For test [10], the system named is MCF-7 cells (unmethylated WRN promoter). Description: Cytogenetic chromosomal breakage analysis. It is filed as cell-based, human. As to conditions: MCF-7, WRN unmethylated; metaphases. How it is done:
as §2

In test [11] the test system is HL60 cells (unmethylated WRN promoter). Description: Cytogenetic chromosomal breakage analysis. It is filed as cell-based, human. Particulars: metaphases. How it is done:
as §2

For test [12], the system named is WRN-transfected MDA-MB-231 cells. Description: Cytogenetic chromosomal breakage analysis. It is filed as cell-based, human. The arrangement: dose or concentration left out as unconfirmed. How it is done: as §2, §3
Test [13] deals with lymphoblastoid cell line from a WS patient (WS-/-). Description: Apoptosis by flow cytometry. Type of test: cell-based, human. As to conditions: WS patient lymphoblastoid cells, positive control. How it is done: as §1, §2
The subject of test [14] is primary colorectal tumors. Put plainly: Overall survival of colorectal cancer patients treated with irinotecan, by WRN methylation status (Kaplan-Meier). It is filed as in vivo, human. As to conditions: WRN methylated colon tumors (n=45). How it is done: Contingency tables were analyzed by Fisher's exact test. Overall survival curves were estimated by the Kaplan-Meier method and were compared with the use of the log-rank test. All statistical analyses were performed using the SPSS version 10.1 program (SPSS Inc, Chicago, Ill.).

In the case of `Nc1ncn([C@H]2C[C@H](O)[C@@H](CO)O2)c(=O)n1` [5-aza-2′-deoxycytidine], the “expression of WRN RNA transcript and protein” value in test [1] is “restored the expression”. The WRN-associated exonuclease activity entry in test [2] was “significant increase”.
Consider `CC[C@@]1(O)C(=O)OCc2c1cc1n(c2=O)Cc2cc3ccccc3nc2-1` [camptothecin], for which the chromosomal breakage entry was “extremely sensitive” in test [3]; “extremely sensitive” in test [9] (MDA-MB-231, WRN methylated, metaphases); “minimal chromosomal breakage” in test [10]; “minimal chromosomal breakage” in test [11]; “acquired a resistance” in test [12] (MDA-MB-231 transfected with WRN, metaphases). The induction of apoptosis entry was “markedly resistant” in test [4]; “optimal inductors of apoptosis” in test [5]; “optimal inductors of apoptosis” in test [6]; “resistant to the apoptosis” in test [7]; “resistant to the apoptosis” in [8]; “same phenomena” in test [13].
For the compound `CCc1c2c(nc3ccc(OC(=O)N4CCC(N5CCCCC5)CC4)cc13)-c1cc3c(c(=O)n1C2)COC(=O)[C@]3(O)CC` [irinotecan], the “median time to the death of the patient” value in test [14] amounted to 39.4 months.
As for `CO[C@@]12[C@H](COC(N)=O)C3=C(C(=O)C(C)=C(N)C3=O)N1C[C@@H]1N[C@@H]12` [mitomycin C], the induction of apoptosis entry in test [4] was “markedly resistant”; in test [5], “optimal inductors of apoptosis”; in test [6], “optimal inductors of apoptosis”; in [7] it was “resistant to the apoptosis”; in [8], “resistant to the apoptosis”; in test [13] it was “same phenomena”. Moreover, the chromosomal breakage entry is “massive breakage” in test [9] (MDA-MB-231 (empty vector), 50 mg/ml) and “resistance to the genome damage” in [12] (MDA-MB-231 transfected with the WRN gene).
